Test [1] has as its system HeLa cells. The experiment in a line: Apoptosis assay annexin-V-FITC/PI, HeLa. Type of test: cell-based, human. Conditions: for induction of apoptosis: 24 or 48 h, annexin-V-FITC/PI.
Test [2] relates to HeLa cells. The experiment in a line: Flow cytometric analysis of cell cycle distribution. To be noted: 24 h treatment, PI flow cytometry. It is filed as cell-based, human. Background: A flow cytometer gives signals particle by particle.
Test [3] concerns A549. The experiment in a line: Apoptosis assay annexin-V-FITC/PI, A549. It is filed as cell-based, human. Conditions: A549, 24 or 48 h.
The subject of test [4] is HeLa cells. The experiment in a line: Western blot analysis of cell cycle and apoptosis proteins. It is filed as cell-based, human.
Test [5] deals with HeLa cells. As to the kind of experiment: ROS production. It is filed as cell-based, human. Conditions: 1 µM, starting at 12–24 h, H2-DCFDA.
Test [6] relates to HeLa cells. The experiment in a line: Mitochondrial membrane potential. Type of test: cell-based, human. Conditions: 0.1–1.0 µM, 6-48 h, JC-1.
The test system of the next test is HT-29. To be noted: cited from earlier work.
The test system of test [7] is A549. Conditions: cited from earlier work.
In the next test the test system is RS4; 11. Conditions: cited from earlier work.
For a further test, the system named is Jurkat. To be noted: cited from earlier work.
Another test concerns HeLa. To be noted: cited from earlier work.
Test [8] has as its system panel of 7 human tumor cell lines (HeLa, A549, HT-29, MDA-MB-231, RS4; 11, Jurkat, and Kasumi-1). The experiment in a line: MTT antiproliferative assay, panel of 7 human tumor cell lines. Conditions: read-out: GI50s. Type of test: cell-based. Background: Tetrazolium assays rely on reduction of a dye to a coloured formazan, in cell work by metabolically active cells.
For a further test, the target named is tubulin (Bos taurus, UniProt P81947+Q6B856). Conditions: tubulin 1 µM, [3H]colchicine 5 µM; ref [4]; cited from earlier work.
tubulin, sequence (Q6B856 whole entry): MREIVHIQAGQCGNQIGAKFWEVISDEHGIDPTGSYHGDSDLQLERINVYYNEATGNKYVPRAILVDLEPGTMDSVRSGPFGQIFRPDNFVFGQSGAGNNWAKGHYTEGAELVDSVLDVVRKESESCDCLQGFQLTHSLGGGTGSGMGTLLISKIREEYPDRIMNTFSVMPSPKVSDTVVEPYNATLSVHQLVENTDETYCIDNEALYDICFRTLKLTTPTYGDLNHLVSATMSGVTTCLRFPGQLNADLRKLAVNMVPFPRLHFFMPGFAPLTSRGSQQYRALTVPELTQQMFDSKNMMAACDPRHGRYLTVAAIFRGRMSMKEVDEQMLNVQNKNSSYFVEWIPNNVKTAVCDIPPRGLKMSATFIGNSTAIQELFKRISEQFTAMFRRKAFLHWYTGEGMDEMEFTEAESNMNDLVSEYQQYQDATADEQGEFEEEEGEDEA
tubulin, sequence (P81947 whole entry): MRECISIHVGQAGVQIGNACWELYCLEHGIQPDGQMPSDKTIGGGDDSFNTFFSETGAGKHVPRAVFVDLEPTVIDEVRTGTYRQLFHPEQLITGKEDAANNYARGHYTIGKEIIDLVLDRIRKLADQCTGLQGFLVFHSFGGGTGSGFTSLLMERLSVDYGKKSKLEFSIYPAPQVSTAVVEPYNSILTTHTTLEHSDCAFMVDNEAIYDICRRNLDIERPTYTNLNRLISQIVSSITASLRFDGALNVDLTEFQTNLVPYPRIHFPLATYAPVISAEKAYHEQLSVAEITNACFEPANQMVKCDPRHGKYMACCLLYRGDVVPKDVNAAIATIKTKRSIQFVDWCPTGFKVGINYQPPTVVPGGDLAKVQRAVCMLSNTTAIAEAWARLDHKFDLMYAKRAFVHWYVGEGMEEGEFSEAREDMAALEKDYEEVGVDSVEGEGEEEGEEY
The target in another test is bovine brain tubulin (Bos taurus, UniProt P81947+Q6B856). To be noted: read-out: Inhibition of tubulin assembly IC50 ± SD; tubulin at 10 µM; ref [4]; cited from earlier work.
bovine brain tubulin, sequence (Q6B856 whole entry): as the sequence (Q6B856 whole entry) above
bovine brain tubulin, sequence (P81947 whole entry): as the sequence (P81947 whole entry) above

Read-outs that look alike come from different tables or passages of the source.

As to `CCn1ccc2c3c(=O)cc(-c4ccc5c(c4)OCO5)[nH]c3ccc21` [Compound 24, 7-(benzo[d][1,3]dioxol-5-yl)-3-ethyl-3H-pyrrolo[3,2-f]quinolin-9(6H)-one], the induction of apoptosis entry in the test with HeLa cells [1] is “induced apoptosis in a time and concentration dependent manner”; in the test with A549 [3], “induced apoptosis in a time and concentration dependent manner”. In the test with HeLa cells [2], the “effect on cell cycle progression” value is on record as “induced a G2/M arrest”. Besides, the “expression of anti-apoptotic proteins Bcl-2 and Mcl-1” value with HeLa cells [4] (immunoblot, 50 nM) is “reduced the expression”. Also, in the test with HeLa cells [4] (western blot), the PARP cleavage entry is “concentration and time-dependent cleavage of poly (ADP-Ribose) polymerase (PARP)”. In addition, the “cyclin B1 expression” value with HeLa cells [4] (western blot, 24 and 48 h) is “increase in cyclin B1 expression”. In the test with HeLa cells [4] (western blot, 24 h), the “phosphatase cdc25c expression” value is “reduction in the expression of phosphatase cdc25c”. In addition, in the test on HeLa cells [4] (western blot, in particular after 48 h), the “phosphorylated cdc2 kinase” value is given as “decrease of the phosphorylated form of cdc2 kinase”. The ROS production entry in the test with HeLa cells [5] is on record as “induced significant production of ROS”. Further, the “mitochondrial transmembrane potential (Δψmt)” value in the test with HeLa cells [6] was “time-dependent increase in the percentage of cells with low Δψmt”.
Turning to `CCn1ccc2c3c(=O)cc(-c4cccc5ccccc45)[nH]c3ccc21` [Compound 21, 3-ethyl-7-(naphthalen-1-yl)-3H-pyrrolo[3,2-f]quinolin-9(6H)-one], the induction of apoptosis entry is “induced apoptosis in a time and concentration dependent manner” in the test on HeLa cells [1]; “induced apoptosis in a time and concentration dependent manner” in the test with A549 [3]. For the same compound, the “effect on cell cycle progression” value with HeLa cells [2] is “induced a G2/M arrest”.
One may read the GI50 as the concentration that inhibits growth by half. As to `COc1ccc(/C=C\c2cc(OC)c(OC)c(OC)c2)cc1O` [CA-4, combretastatin A-4], the apoptotic response result in the test on HeLa cells [1] (0.1 µM) was “strong apoptotic response”. Besides, the 50% growth inhibitory concentration (GI50) in the test on HT-29 (ref [8] and [20]) is 3100 ± 100 nM; with A549 [7] (ref [8] and [20]), 180 ± 50 nM; in the test with RS4; 11 (ref [8] and [20]), 0.8 ± 0.2 nM; in the test on Jurkat (ref [8] and [20]), 5 ± 0.6 nM; with HeLa (ref [8] and [20]), 4 ± 1 nM.
As to `O=C1C=C(c2ccccc2)Nc2cccc3ccn1c23` [Compound 30, (Z)-2-phenyl-[1,4]diazepino[3,2,1-hi]indol-4(1H)-one], in [8], the IC50 is > 10000 nM.
Turning to `CCn1ccc2c3c(=O)cc(-c4ccccc4)[nH]c3ccc21` [Compound 31, 3-ethyl-7-phenyl-3H-pyrrolo[3-2-f] quinolin-9-one], on tubulin, the “Inhibition of colchicine binding % Inhibition ± SD” value is recorded as 73 ± 0.7%. Moreover, the GI50 was 32 ± 1.2 nM with HT-29 (ref [4] and [8]); 32 ± 1.5 nM with A549 [7] (ref [4] and [8]); 2 ± 0.3 nM in the test on RS4; 11 (ref [4] and [8]); 0.5 ± 0.2 nM in the test on Jurkat (ref [4] and [8]); 11 ± 8 nM with HeLa (ref [4] and [8]). In addition, on bovine brain tubulin, the IC50 is 570 ± 20 nM.
Consider `CCn1ccc2c3c(=O)cc(-c4ccc5c(c4)CCCC5)[nH]c3ccc21` [Compound 23, 3-ethyl-7-(1,2,3,4-tetrahydronaphthalen-6-yl)-3H-pyrrolo[3,2-f]quinolin-9(6H)-one], for which the induction of apoptosis result was “induced apoptosis in a time and concentration dependent manner” with HeLa cells [1]; “induced apoptosis in a time and concentration dependent manner” with A549 [3]. Moreover, in the test with HeLa cells [2], the “effect on cell cycle progression” value is “induced a G2/M arrest”.

The values are drawn from publication PMC5798451 (European journal of medicinal chemistry, 2017).
